SMILES strings stand for the structures. In brackets after ≈: the same amount, converted by molar mass.

Data set [1] deals with Sulfide:quinone oxidoreductase, mitochondrial (Homo sapiens, UniProt Q9Y6N5). The experiment in a line: Inhibition of human SQOR.
A short description of data set [2]: Permeability of the compound from basolateral to apical side in human Caco-2 cells. The settings on record: read-out: permeability. The class given is ADME, cell-based. On the technique in general: Passage across Caco-2 layers is used to estimate intestinal permeability.
A short description of data set [3]: Aqueous solubility of the compound at pH 7. The settings on record: buffer.
The nature of data set [4]: Half life in mouse at 10 mg/kg, ip. The settings on record: in vivo. The class given is ADME, organism-based.
The nature of data set [5]: Protein binding in mouse plasma. Format: ADME, cell-free. The conditions noted are these: read-out: PPB (converted).
Data set [6] in a line: Permeability of the compound from apical to basolateral side in human Caco-2 cells. Format: ADME, cell-based. The conditions noted are these: read-out: permeability.
Data set [7] is described as follows: AUClast in mouse at 10 mg/kg, ip. Format: ADME, organism-based. On the set-up: time 0 - last, route intraperitoneal, dose 10 mg/kg. The conditions noted are these: in vivo.

Sulfide:quinone oxidoreductase, mitochondrial, sequence (Q9Y6N5 whole entry): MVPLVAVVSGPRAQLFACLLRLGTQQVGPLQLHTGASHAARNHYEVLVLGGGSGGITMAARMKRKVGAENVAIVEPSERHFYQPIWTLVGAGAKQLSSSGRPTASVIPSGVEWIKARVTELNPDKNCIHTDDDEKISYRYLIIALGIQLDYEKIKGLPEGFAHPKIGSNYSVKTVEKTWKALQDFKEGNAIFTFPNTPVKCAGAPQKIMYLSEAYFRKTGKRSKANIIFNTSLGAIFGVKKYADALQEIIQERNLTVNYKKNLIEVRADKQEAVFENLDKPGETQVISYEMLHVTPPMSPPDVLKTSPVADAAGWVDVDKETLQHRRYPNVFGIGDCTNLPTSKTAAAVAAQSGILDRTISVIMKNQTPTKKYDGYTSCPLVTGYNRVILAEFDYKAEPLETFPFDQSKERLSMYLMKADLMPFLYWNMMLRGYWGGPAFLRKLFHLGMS

As for `COc1ccc(-c2cc(-c3ccc(F)cc3)c(C#N)c(OC)n2)cc1`, the midpoint of inhibition in data set [1], the IC50, lay at 1360 nM.
Regarding `COc1cccc(-c2cc(-c3ccc(F)cc3)c(C#N)c(OC)n2)c1`, half-maximal inhibition in data set [1] (IC50) required 108 nM.
Still for that read-out and setting: the figure for `COc1nc(-c2ccccc2)cc(-c2ccc(Cl)cc2)c1C#N` is 252 nM; for `COc1nc(-c2ccccc2)cc(-c2ccccc2)c1C#N` it is 53 nM.
As for `N#Cc1c(-c2ccccc2)cc(-c2ccccc2)nc1OCc1ccccc1`, the IC50 (in general, the concentration that inhibits the measured activity by half) in data set [1] came out at 100 nM.
In data set [1], `COc1nc(-c2ccccc2)cc(-c2ccc(F)cc2)c1C#N` had a half-inhibitory concentration (IC50) of 25 nM.
As for `COc1nc(-c2ncccc2C)cc(-c2ccc(F)cc2)c1C#N`, the Papp B→A in data set [2] was found to be 0.769 ×10⁻⁶ cm/s. The solubility (commonly the concentration that dissolves in the medium under given conditions) in data set [3] is 0.013 µM (≈ 4.15 ng/mL). Also, the half-life (in general, the time needed for the level to fall by half in the phase considered) in data set [4] was 5.96 h. Moreover, the fraction unbound in data set [5] is 0.0036. The Papp A→B in data set [6] was 0.455 ×10⁻⁶ cm/s. In data set [1], this compound came in with a half-maximal inhibitory concentration (IC50) of 8.7 nM. Further, in data set [7], the AUC(0-t) – broadly, exposure summed from dosing to a finite time, without extrapolation to infinity – was found to be 42 ng·h/mL.
In data set [1], `COc1nc(-c2ccccc2)cc(-c2ccncc2)c1C#N` had an IC50 of 541 nM.
As for `COc1nc2c(c(-c3ccccc3)c1C#N)Cc1ccccc1-2`, inhibition in data set [1] was half-maximal at 2.1 nM (IC50).
The compound `COc1ccccc1-c1cc(-c2ccc(F)cc2)c(C#N)c(OC)n1` registered a half-inhibitory concentration (IC50) in data set [1] of 75 nM.
Same read-out and setting: in the case of `COc1nc(-c2ccccc2)cc(-c2ccc(Cl)cc2Cl)c1C#N` it was > 100000 nM.
Take `COc1nc(-c2ncccc2C)cc(-c2ccc(N)cc2)c1C#N`: in data set [4], the half-life was 1.13 h. Also, the fraction unbound in data set [5] was 0.022. This compound also showed an area under the curve AUC(0-t) in data set [7] of 1080 ng·h/mL.
The compound `COc1nc(-c2ccccn2)cc(-c2ccc(F)cc2)c1C(N)=O` came in with a half-inhibitory concentration (IC50) in data set [1] of 16200 nM.
The same measure, in the same setting: in the case of `COCCOc1nc(-c2ccccc2)cc(-c2ccc(F)cc2)c1C#N` it was 123 nM.
Still for that read-out and setting: the figure for `C=CCOc1nc(-c2ccccn2)cc(-c2ccc(F)cc2)c1C#N` is 5.5 nM; for `Cc1cccnc1-c1cc(-c2ccc(F)cc2)c(C#N)c(OCc2cccnc2)n1` it is 36 nM.
Turning to `COc1nc(-c2ccccn2)cc(-c2ccc(F)cc2)c1C#N`, it took 14 nM to reach half-maximal inhibition in data set [1] (IC50).
On the same count and under the same terms, in the case of `COc1nc(C(C)(C)C)cc(-c2ccc(F)cc2)c1C#N` it was 153 nM.
Take `COc1nc(-c2ccccn2)cc(C(C)(C)C)c1C#N`: the IC50 in data set [1] came to 850 nM.
For the compound `COc1nc(-c2ccncc2)cc(-c2ccc(F)cc2)c1C#N`, in data set [1], half-maximal inhibition (IC50) was put at 17400 nM.
Regarding `CCSc1nc(-c2ccccc2)cc(-c2ccccc2)c1C#N`, in data set [1], the IC50 was found to be 132 nM.
On the same count and under the same terms, the figure for `COc1nc(-c2cccnc2)cc(-c2ccc(F)cc2)c1C#N` is 213 nM.

The values are drawn from ChEMBL document CHEMBL5029181, “Synthesis and evaluation of potent novel inhibitors of human sulfide:quinone oxidoreductase” (Bioorg Med Chem Lett, 2021).
